Test results as given in the supplement of paper PMC11952222, “Development and comparison of single FLT3-inhibitors to dual FLT3/TAF1-inhibitors as an anti-leukemic approach” (PLOS One, 2025).
± gives the standard deviation of the averaged measurements.

Assays:
Assay in all cases: cell viability (CellTiter-Glo luminescence) relative to DMSO (fraction of DMSO control); higher = higher signal (more live cells for CellTiter-Glo)
Details in all cases: 72 h
[1] = system: DU4475
Experimental: (§1)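 MOLM13, DU4475, HDQP1 and IGROV1 cells were treated with compounds in 384-well format for 72 h (KASUMI-1 in 96-well plates, RPMI + 10% FCS, 72 h). Viability was read with CellTiter-Glo and cell death with CellTox Green, both normalised to DMSO vehicle. Doses ranged 0.001-30 µM.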

[2] = system: HDQP1
Experimental: as §1

[3] = system: IGROV1
Experimental: as §1

[4] = system: KASUMI-1
Experimental: as §1

[5] = system: MOLM13
Experimental: as §1

SMILES	cell viability ([1]; 0.01 µM)	cell viability ([1]; 0.1 µM)	cell viability ([1]; 0.3 µM)	cell viability ([1]; 1 µM)	cell viability ([1]; 3 µM)	cell viability ([1]; 10 µM)	cell viability ([1]; 30 µM)	cell viability ([2]; 0.01 µM)	cell viability ([2]; 0.1 µM)	cell viability ([2]; 0.3 µM)	cell viability ([2]; 1 µM)	cell viability ([2]; 3 µM)	cell viability ([2]; 10 µM)	cell viability ([2]; 30 µM)	cell viability ([3]; 0.01 µM)	cell viability ([3]; 0.1 µM)	cell viability ([3]; 0.3 µM)	cell viability ([3]; 1 µM)	cell viability ([3]; 3 µM)	cell viability ([3]; 10 µM)	cell viability ([3]; 30 µM)	cell viability ([4]; 0.000948683 µM)	cell viability ([4]; 0.003 µM)	cell viability ([4]; 0.00948683 µM)	cell viability ([4]; 0.03 µM)	cell viability ([4]; 0.3 µM)	cell viability ([4]; 0.948683 µM)	cell viability ([4]; 3 µM)	cell viability ([4]; 9.48683 µM)	cell viability ([4]; 30 µM)	cell viability ([5]; 0.01 µM)	cell viability ([5]; 0.1 µM)	cell viability ([5]; 0.3 µM)	cell viability ([5]; 1 µM)	cell viability ([5]; 3 µM)	cell viability ([5]; 10 µM)	cell viability ([5]; 30 µM)	cell viability ([4]; 0.0948683 µM)
Cc1cc(-c2cc(NC(=O)c3ccc(C(C)(C)C)cc3)[nH]n2)ccn1 [3i-1246]	1 ± 0.023	1 ± 0.048	0.983 ± 0.023	0.966 ± 0.045	0.92 ± 0.029	0.435 ± 0.12	0.00106 ± 0.0011	0.98 ± 0.034	0.99 ± 0.031	0.986 ± 0.057	0.928 ± 0.083	0.943 ± 0.068	0.628 ± 0.098	0.178 ± 0.052	0.998 ± 0.05	0.958 ± 0.072	0.866 ± 0.042	0.864 ± 0.095	0.811 ± 0.053	0.587 ± 0.085	0.19 ± 0.051	1.076 ± 0.0022	1.13 ± 0.067	1.17 ± 0.087	1.22 ± 0.064	1.1 ± 0.073	0.962 ± 0.2	0.566 ± 0.018	0.239 ± 0.0055	0.00978 ± 0.0007	0.959 ± 0.052	0.755 ± 0.043	0.418 ± 0.062	0.21 ± 0.031	0.0386 ± 0.018	0.0136 ± 0.037	0.000242 ± 0.0027	
CC(C)(C)c1ccc(C(=O)Nc2cc(-c3ccccc3)n[nH]2)cc1 [3i-1247]	1.02 ± 0.037	0.998 ± 0.027	0.955 ± 0.025	0.873 ± 0.027	0.446 ± 0.053	0.028 ± 0.0065	0.00743 ± 0.006	0.999 ± 0.019	1 ± 0.016	0.943 ± 0.046	0.877 ± 0.062	0.786 ± 0.061	0.719 ± 0.071	0.584 ± 0.12	0.974 ± 0.071	0.955 ± 0.11	0.803 ± 0.035	0.739 ± 0.034	0.467 ± 0.062	0.365 ± 0.019	0.243 ± 0.049	1.26 ± 0.087	1.338 ± 0.0028	1.48 ± 0.063	1.411 ± 0.0049	1.37 ± 0.064	1.2 ± 0.041	0.5738 ± 0.0019	0.1148 ± 0.00061	0.0202 ± 0.0019	0.858 ± 0.073	0.388 ± 0.12	0.19 ± 0.062	0.0317 ± 0.0089	0.00462 ± 0.0058	0.00157 ± 0.00088	0.000514 ± 0.00038	1.38 ± 0.063
Cn1cc(-c2cc(NC(=O)c3ccc(C(C)(C)C)cc3)n[nH]2)ccc1=O [3i-1248]	1.01 ± 0.029	1.01 ± 0.031	1 ± 0.035	0.984 ± 0.043	0.893 ± 0.054	0.572 ± 0.078	0.0157 ± 0.016	0.995 ± 0.032	0.989 ± 0.033	0.981 ± 0.082	0.973 ± 0.046	0.913 ± 0.048	0.807 ± 0.054	0.269 ± 0.13	0.989 ± 0.047	0.982 ± 0.075	0.953 ± 0.12	0.861 ± 0.067	0.783 ± 0.047	0.568 ± 0.075	0.0746 ± 0.044	1.15 ± 0.053	1.25 ± 0.078	1.36 ± 0.027	1.503 ± 0.0079	1.41 ± 0.072	1.37 ± 0.046	1.11 ± 0.061	0.455 ± 0.036	0.00672 ± 0.00072	0.988 ± 0.09	0.912 ± 0.088	0.773 ± 0.053	0.459 ± 0.07	0.179 ± 0.049	0.00744 ± 0.0056	-0.000138 ± 0.00087	1.43 ± 0.11
C=CCCn1cc(-c2cc(C(=O)N3CCOCC3)cc3c2ncn3C)c2cc[nH]c2c1=O [GNE-371]	1.01 ± 0.017	1.01 ± 0.026	1.02 ± 0.023	1.01 ± 0.029	1.02 ± 0.027	1.03 ± 0.036	1.05 ± 0.051	1.04 ± 0.04	1.03 ± 0.047	1.02 ± 0.036	0.975 ± 0.04	0.971 ± 0.055	0.999 ± 0.056	0.979 ± 0.047	1.07 ± 0.11	1.02 ± 0.07	0.935 ± 0.064	0.975 ± 0.052	0.95 ± 0.11	0.931 ± 0.043	0.958 ± 0.054										1.01 ± 0.041	0.989 ± 0.05	0.986 ± 0.025	0.994 ± 0.031	0.986 ± 0.056	0.95 ± 0.067	0.928 ± 0.091	
CC(C)(C)c1cc(NC(=O)Nc2ccc(-c3cn4c(n3)sc3cc(OCCN5CCOCC5)ccc34)cc2)no1 [quizartinib]	1 ± 0.03	0.813 ± 0.038	0.336 ± 0.06	0.196 ± 0.052	0.0647 ± 0.034	0.317 ± 0.075	0.0882 ± 0.042	0.984 ± 0.052	1.01 ± 0.051	0.87 ± 0.054	0.807 ± 0.021	0.716 ± 0.088	0.84 ± 0.095	0.69 ± 0.13	1.08 ± 0.081	1.07 ± 0.1	0.721 ± 0.12	0.633 ± 0.12	0.468 ± 0.12	0.614 ± 0.093	0.384 ± 0.069										0.00342 ± 0.00075	0.00261 ± 0.00061	0.00141 ± 0.0005	0.00194 ± 0.00081	0.000901 ± 0.00082	0.00066 ± 0.00036	0.000483 ± 0.00064	
